Measurements reported in patent US7792576B2, “Method of treatment for central nervous system injury” (Purdue Research Foundation, priority 2002, dated 2010).

What was measured:
retinal ganglion cells = settings: administered in vitro to retinal ganglion cells; U.S. Pat. No. 6,440,455 and Benowitz et al. 1999; cited from earlier work
[1] = system: CTM reflex after right lateral hemisection of the spinal cord in adult guinea pig; assay: Behavioral recovery of the cutaneous trunci muscle (CTM) reflex after chronic spinal cord injury (Study One); assay type: in vivo
From the text: Fully adult (approximately 400 grams (g)) female guinea pigs were used in this study (Hartley Strain). They were anesthetized with ketamine/xylyzine by conventional methods (Borgens et al. (2002) J. Exp. Biol. 205, 1-12) prior to surgery, kept warm with heat lamps after surgery, and maintained individually in pens and fed ad libidum for the duration of the investigation. Animals were euthanized at the end of the study, prior to the harvesting of spinal cords for anatomical study by an overdose of the anesthesia (see Borgens et al. (2002) J. Exp. Biol. 205, 1-12).
A laminectomy procedure exposing the dorsal aspect of the spinal cord was performed on all animals between T9 and T11. A right lateral hemisection was performed (FIG. 1) using a special cutting device, and further confirmed to be “complete” (that is, leaving no spared parenchyma) by passing a sharpened pin through the cut tissue. This operation severs the entire right side of the cord from the midline to the far right border of the spinal cord forming a rostral and caudal segment. The entire left side of the spinal cord was left intact. Immediately after transection, a marker device made of surgical stainless steel was inserted into the lesion, as previously described in Borgens et al. (1986) J. Comp. Neurol 250, 168-180 and Borgens and Bohnert (1997) Exp. Neurol. 145, 376-389. […]

[2] = system: ascending and descending axons of transected spinal cord white matter in adult guinea pig; assay: Anterograde intracellular labeling of spinal cord white matter axons: axonal projections relative to the plane of transection (Study One); assay type: in vivo
Description: A laminectomy procedure exposing the dorsal aspect of the spinal cord was performed on all animals between T9 and T11. A right lateral hemisection was performed (FIG. 1) using a special cutting device, and further confirmed to be “complete” (that is, leaving no spared parenchyma) by passing a sharpened pin through the cut tissue. This operation severs the entire right side of the cord from the midline to the far right border of the spinal cord forming a rostral and caudal segment. The entire left side of the spinal cord was left intact. Immediately after transection, a marker device made of surgical stainless steel was inserted into the lesion, as previously described in Borgens et al. (1986) J. Comp. Neurol 250, 168-180 and Borgens and Bohnert (1997) Exp. Neurol. 145, 376-389. This device was left in situ for the duration of the study, and removed prior to histological processing. This procedure leaves a hole in the tissue, which accurately marks the exact plane of transaction even in chronic injuries many months old (FIGS. 1 and 2). The injection of various intracellular labels into guinea pig spinal cord white matter has been described in numerous previous publications. See, for example, Borgens et al. (1986) J Comp Neurol 250, 168-180 and Borgens et al. (1999) Journal of Neurotrauma 16, 639-57. Briefly, approximately 18 hours prior to the sacrifice of the animal, the spinal cord was exposed by surgery, and approximately […], of a fluorescently labeled dextran was injected using a Hamiliton syringe. The label (50% in distilled water; 10,000 Daltons) was injected deep into the parenchyma of white matter, approximately two vertebral segments rostral and caudal of the plane of transection (usually still visible, due to the indwelling marker device). A FITC conjugated dextran (“Flouro-emerald”) was injected rostral to the plane of transection, and a rhodamine-conjugated dextran (“Flouro-ruby”) was injected caudal to the plane of transaction. Thus, this anterograde double label technique marked both ascending fibers (mostly sensory afferent fibers) projecting towards the lesion from below it and descending axons (mainly motor fibers) projecting towards the lesion from above it). Longitudinal horizontal sections provided histological samples in which the entire extent of projection of a single axon often can be traced to fall short of, or regenerate to, around, or through the plane of transection. This procedure can sometimes provide dramatic examples of single unit axon degeneration and regeneration. However, it is not productive to attempt to count individual axons in longitudinal horizontal sections. Often axons take tortuous and curving trajectories, and would be counted more than once in individual histological samples. Additionally, sprouting and branching of fibers can lead to false counting relative to the extended growth from the stump of an individual severed fiber. Rather, the proportion of animals in which axons can be traced to terminate more than 250 μms from the plane of transaction (exactly identified by use of the indwelling marker), within 250 μms of the actual plane of transaction, and to cross the exact plane of transection into the adjacent segment of cord is compared. […] Images from an Olympus Van Ox microscope were obtained with an Optronics DEI-750 color video camera and captured to a PC with Adobe Twain 32 software. Table 1, below, provides the numbers of spinal cords that were injected with the intracellular label (N) and those that were lost to histology (LTH) for each of the three groups. The proportions of those cords in which marked fibers were traced to the four zones are given over the number of cords examined. Statistical Comparison between the groups is provided at the bottom of the graph (Fishers' exact two tailed test). […] Table 1 summarizes the results of anterograde filling of both ascending and descending tracts within the spinal cords of all animals in the Study One, of chronically injured animals. […]

| SMILES | axonal outgrowth (retinal ganglion cells) | percent recovery of the CTM receptive field (mean) ([1]; at the end of the study, chronic SCI, P=0.5 between groups (Mann Whitney)) [%] | animals that recovered some amount of CTM behavior ([1]; chronic SCI treated about 3 months after hemisection, inosine 10 mM s.c. osmotic pump 14 days, with or without OFS 4 weeks, 15 inosine, 16 inosine+OFS animals, none of 15 controls recovered) [animals] | Descending fibers, Zone 4: proportion of cords ([2]; FITC-labeled descending fibers projecting into the adjacent segment of cord, over number of cords examined) | Descending fibers, Zone 3: proportion of cords ([2]; FITC-labeled descending fibers terminating at the plane of transection, over number of cords examined) | Descending fibers, Zone 1 >250: cords with labeled fibers ([2]; FITC-labeled descending fibers terminating more than 250 μm from the plane of transection, chronic SCI) | Descending fibers, Zone 2 <250: proportion of cords ([2]; FITC-labeled descending fibers within 250 μm of the plane of transection, over number of cords examined) | Ascending fibers, Zone 4: proportion of cords ([2]; rhodamine-labeled ascending fibers projecting into the adjacent segment of cord, over number of cords examined) | Ascending fibers, Zone 3: proportion of cords ([2]; rhodamine-labeled ascending fibers terminating at the plane of transection, over number of cords examined) | Ascending fibers, Zone 1 >250: cords with labeled fibers ([2]; rhodamine-labeled ascending fibers terminating more than 250 μm from the plane of transection, chronic SCI) | Ascending fibers, Zone 2 <250: proportion of cords ([2]; rhodamine-labeled ascending fibers within 250 μm of the plane of transection, over number of cords examined) |
| --- | --- | --- | --- | --- | --- | --- | --- | --- | --- | --- | --- |
| OC[C@H]1O[C@@H](n2cnc3c(O)ncnc32)[C@H](O)[C@@H]1O [Inosine, inosine] | stimulating axonal outgrowth | 23.5±3.6 | 11 | 1/8 | 2/8 | 8 | 7/8 | 2/12 | 7/12 | 12 | 10/12 |
| Nc1nc2c(ncn2[C@@H]2O[C@H](CO)[C@@H](O)[C@H]2O)c(=O)[nH]1 [guanosine] | stimulating axonal outgrowth |  |  |  |  |  |  |  |  |  |  |
